Laboratory results: paper PMC7859440, “Transporter Gene Regulation in Sandwich Cultured Human Hepatocytes Through the Activation of Constitutive Androstane Receptor (CAR) or Aryl Hydrocarbon Receptor (AhR)” (Frontiers in Pharmacology, 2021)
Where “and” joins values, the source holds several entries; their conditions need not be identical. Identical values can stand only once.

Experiments:
UGT1A1 = assay: gene induction in sandwich-cultured human hepatocytes (qRT-PCR)
Method: (§1) Cryopreserved human hepatocytes were quickly thawed at 37°C and then transferred into hepatocyte thawing medium. Cells were pelleted at 100 × g for 10 min and then resuspended in hepatocyte complete plating medium (CP medium). The cells were then seeded at 65,000 cells per well in 96-well collagen I coated plates. After cell attachment (4–6 h post-seeding), CP medium was exchanged for ice-cold complete incubation medium (HI medium) containing BD Matrigel™ at the concentration of 0.25 mg/ml. The cells were then incubated overnight at 37°C in a humidified 5% CO2 incubator. […] Cell death or loss of adhesion of hepatocytes during or after treatment were examined by microscopy.
(§2) A RNeasy 96 Kit (Qiagen) was used to extract the total cellular RNA from sandwich cultured hepatocytes in 96-well plates following the manufacturer's instructions. A total volume of 200 μL RNA was obtained via the column elution provided in the RNeasy kit. Five μL RNA extraction was mixed with TaqMan® Fast Virus 1-Step Master Mix (Life Technologies) in a final reaction volume of 20 μL and qRT-PCR was achieved using a QuantStudio 6 Flex Real-Time PCR System (Life Technologies), following the manufacturer's instructions. β-actin mRNA expression in the SCHH was used as a house-keeping gene for the normalization of target gene expressions. The mRNA levels in SCHH treated with AhR or CAR activators were expressed by a fold change, compared to the gene expressions without the treatment. The 2^−ΔΔCt method ([Livak and Schmittgen, 2001]) was used to analyze the relative changes in gene expression, where the Ct is the cycle number at which the fluorescence in the reaction crosses the preset arbitrary threshold; the ΔCt represents the difference between the Ct target and reference and the ΔΔCt is the difference between the ΔCt of the test and the ΔCt of the preassigned control. Gene expression for each condition is expressed as a fold-change of mean ± standard deviation (SD) from three independent donors (each performed in triplicate). All primer and probe sets were purchased from Life Technologies (Table 2). When concentration-dependent induction observed, the in vitro induction mRNA data were fitted using the sigmoid 3-parameter equation in GraphPad Prism (La Jolla, CA) to estimate the in vitro concentration of inducer that produced half the maximum induction values (EC50).

SLC29A1 (ENT1) = assay: as above; format: cell-based; details: SCHH, 72 h; TCDD 50 nM, OP 50 µM, CITCO 5 µM, PB 1,000 µM (highest conc.); mean ± SD, three donors
SLC10A1 (NTCP) = assay: as above; format: cell-based; details: SCHH
Method: A RNeasy 96 Kit (Qiagen) was used to extract the total cellular RNA from sandwich cultured hepatocytes in 96-well plates following the manufacturer's instructions. A total volume of 200 μL RNA was obtained via the column elution provided in the RNeasy kit. Five μL RNA extraction was mixed with TaqMan® Fast Virus 1-Step Master Mix (Life Technologies) in a final reaction volume of 20 μL and qRT-PCR was achieved using a QuantStudio 6 Flex Real-Time PCR System (Life Technologies), following the manufacturer's instructions. β-actin mRNA expression in the SCHH was used as a house-keeping gene for the normalization of target gene expressions. The mRNA levels in SCHH treated with AhR or CAR activators were expressed by a fold change, compared to the gene expressions without the treatment. The 2^−ΔΔCt method ([Livak and Schmittgen, 2001]) was used to analyze the relative changes in gene expression, where the Ct is the cycle number at which the fluorescence in the reaction crosses the preset arbitrary threshold; the ΔCt represents the difference between the Ct target and reference and the ΔΔCt is the difference between the ΔCt of the test and the ΔCt of the preassigned control. Gene expression for each condition is expressed as a fold-change of mean ± standard deviation (SD) from three independent donors (each performed in triplicate). […] When concentration-dependent induction observed, the in vitro induction mRNA data were fitted using the sigmoid 3-parameter equation in GraphPad Prism (La Jolla, CA) to estimate the in vitro concentration of inducer that produced half the maximum induction values (EC50).

CYP2C9 = details: SCHH, 72 h; TCDD 50 nM, OP 50 µM, CITCO 5 µM, PB 1,000 µM (highest conc.); mean ± SD, three donors
Method: as §1
A RNeasy 96 Kit (Qiagen) was used to extract the total cellular RNA from sandwich cultured hepatocytes in 96-well plates following the manufacturer's instructions. […] The 2^−ΔΔCt method ([Livak and Schmittgen, 2001]) was used to analyze the relative changes in gene expression, where the Ct is the cycle number at which the fluorescence in the reaction crosses the preset arbitrary threshold; the ΔCt represents the difference between the Ct target and reference and the ΔΔCt is the difference between the ΔCt of the test and the ΔCt of the preassigned control. Gene expression for each condition is expressed as a fold-change of mean ± standard deviation (SD) from three independent donors (each performed in triplicate). […]

SLC51B (OSTβ) = assay: gene induction in sandwich-cultured human hepatocytes (qRT-PCR); format: cell-based; details: SCHH, 72 h; TCDD 50 nM, OP 50 µM, CITCO 5 µM, PB 1,000 µM (highest conc.); mean ± SD, three donors
SLC29A2 (ENT2) = assay: as above; format: cell-based; details: SCHH, 72 h; TCDD 50 nM, OP 50 µM, CITCO 5 µM, PB 1,000 µM (highest conc.); mean ± SD, three donors
CYP3A4 = assay: in vitro; details: greater than 50% reduction, in only two donors among three lots of hepatocytes
Method: as §1
as §2, with “The 2^−ΔΔCt method ([Livak and Schmittgen, 2001]) was used to analyze the relative changes in gene expression, where the Ct is the cycle number at which the fluorescence in the reaction crosses the preset arbitrary threshold; the ΔCt represents the difference between the Ct target and reference and the ΔΔCt is the difference between the ΔCt of the test and the ΔCt of the preassigned control.” left out

CYP1A1 = assay: in vitro
Method: as §1
as §2, with “When concentration-dependent induction observed, the in vitro induction mRNA data were fitted using the sigmoid 3-parameter equation in GraphPad Prism (La Jolla, CA) to estimate the in vitro concentration of inducer that produced half the maximum induction values (EC50).” left out

SLC51A (OSTα) = assay: gene induction in sandwich-cultured human hepatocytes (qRT-PCR); format: cell-based; details: SCHH, 72 h; TCDD 50 nM, OP 50 µM, CITCO 5 µM, PB 1,000 µM (highest conc.); mean ± SD, three donors
SLC22A5 (OCTN2) = assay: as above; format: cell-based; details: SCHH, 72 h; TCDD 50 nM, OP 50 µM, CITCO 5 µM, PB 1,000 µM (highest conc.); mean ± SD, three donors
SLC22A9 (OAT7) = assay: as above; format: cell-based; details: SCHH, 72 h; TCDD 50 nM, OP 50 µM, CITCO 5 µM, PB 1,000 µM (highest conc.); mean ± SD, three donors
SLC15A1 (PEPT1) = assay: as above; format: cell-based; details: SCHH, 72 h; TCDD 50 nM, OP 50 µM, CITCO 5 µM, PB 1,000 µM (highest conc.); mean ± SD, three donors
SLCO1B1 (OATP1B1) = assay: as above; format: cell-based; details: SCHH, 72 h; TCDD 50 nM, OP 50 µM, CITCO 5 µM, PB 1,000 µM (highest conc.); mean ± SD, three donors
Method: as §1, §2

SLCO1B3 (OATP1B3) = assay: as above; format: cell-based; details: SCHH, 72 h; TCDD 50 nM, OP 50 µM, CITCO 5 µM, PB 1,000 µM (highest conc.); mean ± SD, three donors
Method: as §1, §2

ABCB1 (MDR1) = assay: as above; format: cell-based; details: SCHH, 72 h; TCDD 50 nM, OP 50 µM, CITCO 5 µM, PB 1,000 µM (highest conc.); mean ± SD, three donors
Method: as §1, §2

ABCC3 (MRP3) = assay: as above; format: cell-based; details: SCHH, 72 h; TCDD 50 nM, OP 50 µM, CITCO 5 µM, PB 1,000 µM (highest conc.); mean ± SD, three donors
Method: as §1, §2

ABCC5 (MRP5) = assay: as above; format: cell-based; details: SCHH, 72 h; TCDD 50 nM, OP 50 µM, CITCO 5 µM, PB 1,000 µM (highest conc.); mean ± SD, three donors
Method: as §1, §2

SLCO4C1 (OATP4C1) = assay: as above; format: cell-based; details: SCHH, 72 h; TCDD 50 nM, OP 50 µM, CITCO 5 µM, PB 1,000 µM (highest conc.); mean ± SD, three donors
Method: as §1, §2

ABCC6 (MRP6) = assay: as above; format: cell-based; details: SCHH, 72 h; TCDD 50 nM, OP 50 µM, CITCO 5 µM, PB 1,000 µM (highest conc.); mean ± SD, three donors
Method: as §1, §2

SLCO2B1 (OATP2B1) = assay: as above; format: cell-based; details: SCHH, 72 h; TCDD 50 nM, OP 50 µM, CITCO 5 µM, PB 1,000 µM (highest conc.); mean ± SD, three donors
Method: as §1, §2

ABCB11 (BSEP) = assay: as above; format: cell-based; details: SCHH, 72 h; TCDD 50 nM, OP 50 µM, CITCO 5 µM, PB 1,000 µM (highest conc.); mean ± SD, three donors
Method: as §1, §2

ABCC2 (MRP2) = assay: as above; format: cell-based; details: SCHH, 72 h; TCDD 50 nM, OP 50 µM, CITCO 5 µM, PB 1,000 µM (highest conc.); mean ± SD, three donors
Method: as §1, §2

SLC47A1 (MATE1) = assay: as above; format: cell-based; details: SCHH, 72 h; TCDD 50 nM, OP 50 µM, CITCO 5 µM, PB 1,000 µM (highest conc.); mean ± SD, three donors
Method: as §1, §2

ABCC4 (MRP4) = assay: as above; format: cell-based; details: SCHH, 72 h; TCDD 50 nM, OP 50 µM, CITCO 5 µM, PB 1,000 µM (highest conc.); mean ± SD, three donors
Method: as §1, §2

SLC22A1 (OCT1) = assay: as above; format: cell-based; details: SCHH, 72 h; TCDD 50 nM, OP 50 µM, CITCO 5 µM, PB 1,000 µM (highest conc.); mean ± SD, three donors
Method: as §1, §2

SLC22A7 (OAT2) = assay: as above; format: cell-based; details: SCHH, 72 h; TCDD 50 nM, OP 50 µM, CITCO 5 µM, PB 1,000 µM (highest conc.); mean ± SD, three donors
SLC16A1 (MCT1) = assay: as above; format: cell-based; details: SCHH, 72 h; TCDD 50 nM, OP 50 µM, CITCO 5 µM, PB 1,000 µM (highest conc.); mean ± SD, three donors
[1] = SCHH, 72 h, TCDD 50 nM, OP 50 µM, CITCO 5 µM, PB 1,000 µM (highest conc.), mean ± SD, three donors

Structure (SMILES): Clc1cc2c(cc1Cl)Oc1cc(Cl)c(Cl)cc1O2 [TCDD, 2,3,7,8-tetrachlorodibenzo-p-dioxin]
- UGT1A1 mRNA fold change (UGT1A1; [1]): 4.3 fold and 4.3 ± 1.5 fold
- EC50 at 72 h (UGT1A1; human): 1.56 ± 0.4 nM
- SLC29A1 (ENT1) mRNA fold change (SLC29A1 (ENT1)): 0.9 ± 0.4 fold
- SLC10A1 (NTCP) mRNA fold change (SLC10A1 (NTCP); 72 h, TCDD 50 nM, OP 50 µM, CITCO 5 µM, PB 1,000 µM (highest conc.), mean ± SD, three donors): 0.5 ± 0.2 fold
- SLC10A1 gene suppression (reduction) (SLC10A1 (NTCP); 3 days, highest concentration treated): about 2 fold
- CYP2C9 mRNA fold change (CYP2C9): 0.8 ± 0.3 fold
- SLC51B (OSTβ) mRNA fold change (SLC51B (OSTβ)): 1.6 ± 0.3 fold
- SLC29A2 (ENT2) mRNA fold change (SLC29A2 (ENT2)): 1.0 ± 0.2 fold
- CYP3A4 mRNA fold change in single donors (CYP3A4): < 0.5 fold
- CYP1A1 mRNA fold change (CYP1A1; [1]): 38 fold and 38.1 ± 19.2 fold
- EC50 at 72 h (CYP1A1; human): 0.5 ± 0.11 nM
- SLC51A (OSTα) mRNA fold change (SLC51A (OSTα)): 1.5 ± 0.3 fold
- SLC22A5 (OCTN2) mRNA fold change (SLC22A5 (OCTN2)): 1.1 ± 0.2 fold
- SLC22A9 (OAT7) mRNA fold change (SLC22A9 (OAT7)): 0.9 ± 0.2 fold
- SLC15A1 (PEPT1) mRNA fold change (SLC15A1 (PEPT1)): 1.2 ± 0.3 fold
- SLCO1B1 (OATP1B1) mRNA fold change (SLCO1B1 (OATP1B1)): 1.0 ± 0.4 fold
- SLCO1B3 (OATP1B3) mRNA fold change (SLCO1B3 (OATP1B3)): 0.8 ± 0.5 fold
- ABCB1 (MDR1) mRNA fold change (ABCB1 (MDR1)): 1.0 ± 0.3 fold
- ABCC3 (MRP3) mRNA fold change (ABCC3 (MRP3)): 1.0 ± 0.2 fold
- ABCC5 (MRP5) mRNA fold change (ABCC5 (MRP5)): 0.9 ± 0.3 fold
- SLCO4C1 (OATP4C1) mRNA fold change (SLCO4C1 (OATP4C1)): 0.8 ± 0.3 fold
- ABCC6 (MRP6) mRNA fold change (ABCC6 (MRP6)): 0.8 ± 0.2 fold
- SLCO2B1 (OATP2B1) mRNA fold change (SLCO2B1 (OATP2B1)): 1.1 ± 0.4 fold
- ABCB11 (BSEP) mRNA fold change (ABCB11 (BSEP)): 0.7 ± 0.3 fold
- ABCC2 (MRP2) mRNA fold change (ABCC2 (MRP2)): 0.9 ± 0.3 fold
- SLC47A1 (MATE1) mRNA fold change (SLC47A1 (MATE1)): 0.9 ± 0.3 fold
- ABCC4 (MRP4) mRNA fold change (ABCC4 (MRP4)): 0.7 ± 0.2 fold
- SLC22A1 (OCT1) mRNA fold change (SLC22A1 (OCT1)): 0.7 ± 0.3 fold
- SLC22A7 (OAT2) mRNA fold change (SLC22A7 (OAT2)): 0.8 ± 0.2 fold
- SLC16A1 (MCT1) mRNA fold change (SLC16A1 (MCT1)): 1.0 ± 0.2 fold
